The record followed here is patent US20120157471A1, “BENZIMIDAZOLE DERIVATIVES” (PFIZER INC., priority 2009, published 2012).

In experiment [1] the target is T1, human Smo (amino acids 181-787) (Homo sapiens, UniProt Q99835).
T1 construct: expressed in transfected cells; membrane preparation
Description: Smo radioligand competition binding assay (displacement of 3H-PF-03451358 from HEK293 membranes). To be noted: for inhibition at 0.05 µM: 0.05 μM test compound, displacement of 3H-PF-03451358, read-out: SMO % inh. @ 0.05 μM; for IC50: radioligand competition binding. The method, boiled down: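 Membranes (40 μg protein/well) from HEK293 expressing murine Igk-leader-fused Smo 181-787 incubated 2 h at room temperature with 3 nM 3H-PF-03451358 in Tris pH 7.5/NaCl/MgCl2/EDTA/BSA buffer; filter-bound counts by scintillation. Nonspecific binding with 30 μM cold PF-03451358; IC50 from four-parameter fit of % inhibition.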

Experiment [2] relates to Gli-Luc/MEF cells (Smo). Description: Gli-Luc/MEF assay (Shh-stimulated luciferase reporter under the Gli response element). The conditions noted are these: Mus musculus, MEF, 48 h. The class given is cell-based, mouse. The essentials: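 Mouse Gli-Luc/MEF cells dosed with compound (3-fold series, […]) plus 2 μg/mL recombinant mouse Shh, then incubated 48 h at 37° C, 5% CO2. Bright-Glo luminescence read; IC50 calculated from inhibition of Shh-stimulated luciferase.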
A general note: In a reporter assay the amount or activity of a reporter protein is the signal.

T1 sequence (Q99835 181-787): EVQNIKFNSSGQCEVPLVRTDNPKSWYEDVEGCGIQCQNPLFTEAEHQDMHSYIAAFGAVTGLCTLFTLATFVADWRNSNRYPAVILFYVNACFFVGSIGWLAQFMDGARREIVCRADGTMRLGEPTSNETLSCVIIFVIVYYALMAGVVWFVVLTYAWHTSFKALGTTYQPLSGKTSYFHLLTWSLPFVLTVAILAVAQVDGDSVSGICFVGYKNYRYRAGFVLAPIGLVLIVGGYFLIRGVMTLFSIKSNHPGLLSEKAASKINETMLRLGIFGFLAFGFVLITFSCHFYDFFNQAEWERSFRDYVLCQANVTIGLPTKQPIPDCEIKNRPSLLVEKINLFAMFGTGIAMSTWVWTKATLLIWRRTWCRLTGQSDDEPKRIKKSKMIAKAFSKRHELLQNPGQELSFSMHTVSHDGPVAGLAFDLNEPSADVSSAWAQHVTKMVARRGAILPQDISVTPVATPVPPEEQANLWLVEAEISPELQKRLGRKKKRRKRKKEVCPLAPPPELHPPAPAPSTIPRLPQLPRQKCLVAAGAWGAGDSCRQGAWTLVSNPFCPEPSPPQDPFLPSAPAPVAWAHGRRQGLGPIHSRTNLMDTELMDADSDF

For `CC(=O)N1CCN(c2cc(-c3nc4ccccc4n3C)c(Cl)cn2)[C@H](C)C1` [Example A-168, 2-{2-[(2R)-4-acetyl-2-methylpiperazin-1-yl]-5-chloropyridin-4-yl}-1-methyl-1H-benzimidazole], in experiment [1], the inhibition at 0.05 µM amounted to 97% and the IC50 was determined as 8 nM. Further, the IC50 in experiment [2] came to 7 nM.

In the case of `CN(CCNS(C)(=O)=O)c1cc(-c2nc3ccccc3n2C)c(Cl)cn1` [Example A-145, N-(2-{[5-chloro-4-(1-methyl-1H-benzimidazol-2-yl)pyridin-2-yl](methyl)amino}ethyl)methanesulfonamide], in experiment [1], the inhibition at 0.05 µM is 97% and the IC50 was found to be 22 nM. The same molecule yielded an IC50 in experiment [2] of 22 nM.

In the case of `Cn1c(-c2cc(N3C[C@](C)(CO)[C@](C)(CO)C3)ncc2Cl)nc2ccccc21` [Example A-108, {(3R,4S)-1-[5-chloro-4-(1-methyl-1H-benzimidazol-2-yl)pyridin-2-yl]-3,4-dimethylpyrrolidine-3,4-diyl}dimethanol], in experiment [1], the inhibition at 0.05 µM amounted to 76% and the IC50 was 109 nM. The molecule also registered an IC50 in experiment [2] of 59 nM.

In the case of `Cn1ccnc1C(O)C1CCN(c2cc(-c3nc4ccccc4n3C)c(Cl)cn2)CC1` (stereo not drawn) [Example A-73, {1-[5-chloro-4-(1-methyl-1H-benzimidazol-2-yl)pyridin-2-yl]piperidin-4-yl}(1-methyl-1H-imidazol-2-yl)methanol], in experiment [1], the inhibition at 0.05 µM amounted to 93% and the IC50 came out at 45 nM. Besides, in experiment [2], the IC50 was 25 nM.

As for `Cn1c(-c2cc(N3CCN(CCO)CC3)ncc2Cl)nc2ccccc21` [Example A-213, 2-{4-[5-chloro-4-(1-methyl-1H-benzimidazol-2-yl)pyridin-2-yl]piperazin-1-yl}ethanol], in experiment [1], the inhibition at 0.05 µM amounted to 83% and the IC50 was determined as 78 nM. In addition, the IC50 in experiment [2] came out at 56.8 nM.

Take `CN(C)C(=O)COC1CCN(c2cc(-c3nc4ccccc4n3C)c(Cl)cn2)C1` (stereo in doubt) [Example A-126, 2-({(3R)-1-[5-chloro-4-(1-methyl-1H-benzimidazol-2-yl)pyridin-2-yl]pyrrolidin-3-yl}oxy)-N,N-dimethylacetamide]: the inhibition at 0.05 µM in experiment [1] is 57%. Besides, the IC50 in experiment [2] was determined as 109 nM.

Regarding `Cn1c(-c2nc(N3CCN(C(=O)CO)CC3)ncc2Cl)nc2ccccc21` [Example C-18, 2-{4-[5-chloro-4-(1-methyl-1H-benzimidazol-2-yl)pyrimidin-2-yl]piperazin-1-yl}-2-oxoethanol], in experiment [1], the inhibition at 0.05 µM is 98% and the IC50 came to 15 nM. Also, in experiment [2], the IC50 was 36 nM.

In the case of `CNS(=O)(=O)C1CCN(c2cc(-c3nc4ccccc4n3C)c(Cl)cn2)C1` (stereo not drawn) [Example A-104, 1-[5-chloro-4-(1-methyl-1H-benzimidazol-2-yl)pyridin-2-yl]-N-methylpyrrolidine-3-sulfonamide], the inhibition at 0.05 µM in experiment [1] was 80%. For the same molecule, the IC50 in experiment [1] worked out at 37 nM; in experiment [2], 23 nM.

`CC(=O)N1CCCN(c2cc(-c3nc4cccnc4n3C)c(Cl)cn2)CC1` [Example A-39, 2-[2-(4-acetyl-1,4-diazepan-1-yl)-5-chloropyridin-4-yl]-3-methyl-3H-imidazo[4,5-b]pyridine]: in experiment [1], the inhibition at 0.05 µM was determined as 92%. Besides, the IC50 in experiment [1] came to 45 nM; in experiment [2] it was 30 nM.

As for `Cn1c(-c2cc(N3CCC(O)(c4ccncn4)C3)ncc2Cl)nc2ccccc21` (stereo not drawn) [Example A-122, 1-[5-chloro-4-(1-methyl-1H-benzimidazol-2-yl)pyridin-2-yl]-3-pyrimidin-4-ylpyrrolidin-3-ol], the inhibition at 0.05 µM in experiment [1] was 59%. In addition, the midpoint of inhibition in experiment [2], the IC50, lay at 38 nM.

For `Cn1c(-c2cc(N3CCc4nnc(C5CC5)n4CC3)ncc2Cl)nc2ccccc21` [Example A-68, 7-[5-chloro-4-(1-methyl-1H-benzimidazol-2-yl)pyridin-2-yl]-3-cyclopropyl-6,7,8,9-tetrahydro-5H-[1,2,4]triazolo[4,3-d][1,4]diazepine], in experiment [1], the inhibition at 0.05 µM was found to be 94% and the IC50 was 21 nM. In experiment [2], the IC50 was determined as 20 nM.

As to `Cn1c(-c2cc(N3CCN(C(=O)CC(C)(C)O)CC3)ncc2Cl)nc2ccccc21` [Example A-190, 4-{4-[5-chloro-4-(1-methyl-1H-benzimidazol-2-yl)pyridin-2-yl]piperazin-1-yl}-2-methyl-4-oxobutan-2-ol], in experiment [1], the inhibition at 0.05 µM turned out to be 98% and the IC50 was 7 nM. Inhibition in experiment [2] was half-maximal at 1.4 nM (IC50).

Take `Cn1c(-c2cc(N3CCN(S(C)(=O)=O)CC3)ncc2F)nc2ccccc21` [Example D-6, 2-{5-fluoro-2-[4-(methylsulfonyl)piperazin-1-yl]pyridin-4-yl}-1-methyl-1H-benzimidazole]: in experiment [1], the inhibition at 0.05 µM came out at 97% and the IC50 was determined as 12 nM. In experiment [2], this molecule returned an IC50 of 22 nM.

For the molecule `CC(=O)N1CCN(c2cc(-c3nc4ccccc4n3C)c(Cl)cn2)[C@@H](C)C1` [Example A-199, 2-{2-[(2S)-4-acetyl-2-methylpiperazin-1-yl]-5-chloropyridin-4-yl}-1-methyl-1H-benzimidazole], the inhibition at 0.05 µM in experiment [1] was 100%. Also, the IC50 in experiment [1] stood at 9 nM; in experiment [2] it was 7.2 nM.

Consider `Cn1c(-c2ccnc(N3CCN(S(C)(=O)=O)CC3)c2)nc2ccccc21` [Example A-21, 1-methyl-2-{2-[4-(methylsulfonyl)piperazin-1-yl]pyridin-4-yl}-1H-benzimidazole], for which, in experiment [1], the inhibition at 0.05 µM was 78% and the IC50 amounted to 152 nM. The molecule further returned an IC50 in experiment [2] of 90 nM.

In the case of `Cn1c(-c2cc(N3C[C@@H](CO)C(C)(CO)C3)ncc2Cl)nc2ccccc21` (stereo in doubt) [Example A-95, {(3R,4S)-1-[5-chloro-4-(1-methyl-1H-benzimidazol-2-yl)pyridin-2-yl]-3-methylpyrrolidine-3,4-diyl}dimethanol], in experiment [1], the inhibition at 0.05 µM is 86%. The IC50 in experiment [1] was determined as 70 nM; in experiment [2], 38 nM.

As for `CC(=O)NC1CCN(c2cc(-c3nc4ccccc4n3C)c(Cl)cn2)CC1` [Example A-22, N-{1-[5-chloro-4-(1-methyl-1H-benzimidazol-2-yl)pyridin-2-yl]piperidin-4-yl}acetamide], in experiment [1], the inhibition at 0.05 µM worked out at 94% and the IC50 was determined as 11 nM. The molecule further gave an IC50 in experiment [2] of 6 nM.

With `Cn1c(-c2ccnc(N3CCCN(S(C)(=O)=O)CC3)c2)nc2ccccc21` [Example A-14, 1-methyl-2-{2-[4-(methylsulfonyl)-1,4-diazepan-1-yl]pyridin-4-yl}-1H-benzimidazole], in experiment [1], the inhibition at 0.05 µM was determined as 84% and the IC50 stood at 31 nM. The same molecule came in with an IC50 in experiment [2] of 84 nM.

`Cn1c(-c2cc(N3CCOCC(CO)C3)ncc2Cl)nc2ccccc21` (stereo not drawn) [Example A-47, {4-[5-chloro-4-(1-methyl-1H-benzimidazol-2-yl)pyridin-2-yl]-1,4-oxazepan-6-yl}methanol]: in experiment [1], the inhibition at 0.05 µM was 101% and the IC50 is 9 nM. In experiment [2], this molecule returned an IC50 of 7 nM.

As for `Cn1c(-c2cc(N3CCC(O)(CN4CCOCC4)CC3)ncc2Cl)nc2ccccc21` [Example A-88, 1-[5-chloro-4-(1-methyl-1H-benzimidazol-2-yl)pyridin-2-yl]-4-(morpholin-4-ylmethyl)piperidin-4-ol], the inhibition at 0.05 µM in experiment [1] is 89%. Besides, the IC50 was 61 nM in experiment [1] and 28 nM in experiment [2].

`Cc1cn(C2CN(c3cc(-c4nc5ccccc5n4C)c(Cl)cn3)C2)c(=O)[nH]c1=O` [Example A-121, 1-{1-[5-chloro-4-(1-methyl-1H-benzimidazol-2-yl)pyridin-2-yl]azetidin-3-yl}-5-methylpyrimidine-2,4(1H,3H)-dione]: in experiment [1], the inhibition at 0.05 µM was determined as 62%. This molecule came in with an IC50 in experiment [2] of 94 nM.

As for `CCNC(=O)NC1CN(c2cc(-c3nc4ccccc4n3C)c(Cl)cn2)C1` [Example A-148, 1-{1-[5-chloro-4-(1-methyl-1H-benzimidazol-2-yl)pyridin-2-yl]azetidin-3-yl}-3-ethylurea], in experiment [1], the inhibition at 0.05 µM turned out to be 95% and the IC50 was determined as 21 nM. This molecule also displayed an IC50 in experiment [2] of 9 nM.

In the case of `CCS(=O)(=O)NC1CCN(c2cc(-c3nc4ccccc4n3C)c(F)cn2)CC1` [Example D-9, N-{1-[5-fluoro-4-(1-methyl-1H-benzimidazol-2-yl)pyridin-2-yl]piperidin-4-yl}ethanesulfonamide], in experiment [1], the inhibition at 0.05 µM came to 99% and the IC50 is 5 nM. In addition, the IC50 in experiment [2] is 3.9 nM.

As to `COC(=O)NC1CCN(c2cc(-c3nc4ccccc4n3C)c(Cl)cn2)C1` (stereo not drawn) [Example A-152, methyl {1-[5-chloro-4-(1-methyl-1H-benzimidazol-2-yl)pyridin-2-yl]pyrrolidin-3-yl}carbamate], in experiment [1], the inhibition at 0.05 µM was determined as 87% and the IC50 was 69 nM. Moreover, half-maximal inhibition in experiment [2] (IC50) required 21 nM.

Take `CC(=O)N1CCCN(c2cc(-c3nc4ccccc4n3C)ccn2)CC1` [Example A-154, 2-[2-(4-acetyl-1,4-diazepan-1-yl)pyridin-4-yl]-1-methyl-1H-benzimidazole]: in experiment [1], the inhibition at 0.05 µM worked out at 90% and the IC50 worked out at 33 nM. In addition, in experiment [2], the IC50 came to 20 nM.

For `CCS(=O)(=O)N1CCN(c2cc(-c3nc4ccccc4n3C)c(F)cn2)CC1` [Example D-5, 2-{2-[4-(ethylsulfonyl)piperazin-1-yl]-5-fluoropyridin-4-yl}-1-methyl-1H-benzimidazole], in experiment [1], the inhibition at 0.05 µM was found to be 97% and the IC50 stood at 18 nM. In experiment [2], this molecule returned an IC50 of 17 nM.

By IC50 is commonly meant the concentration at which inhibition is half-maximal.
